Results on one molecule are retold here after publication PMC7335202, “A quaternary ammonium silane antimicrobial triggers bacterial membrane and biofilm destruction” (Scientific Reports, 2020).

The assay deals with T1, Sortase A (Streptococcus mutans, UniProt Q8CM62).
T1 construct: gene srtA
T1 sequence (Q8CM62 1-246): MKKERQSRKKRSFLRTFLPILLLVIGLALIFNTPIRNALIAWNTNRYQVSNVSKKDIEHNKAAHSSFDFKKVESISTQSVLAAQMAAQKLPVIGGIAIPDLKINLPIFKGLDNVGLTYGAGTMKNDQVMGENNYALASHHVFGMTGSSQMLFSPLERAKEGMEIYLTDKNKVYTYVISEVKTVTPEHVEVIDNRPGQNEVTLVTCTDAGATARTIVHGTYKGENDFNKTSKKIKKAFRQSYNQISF
Kind of assay: fluorescent peptide (Dabcyl-QALPETGEE-Edans) cleavage assay with purified sortase A; positive control inhibitor. Format: biochemical.

Molecules are shown by their SMILES.

In general, IC50 refers to the concentration that gives 50% inhibition. The molecule `O=C(O)c1cc[c]([Hg][OH])cc1` [pHMB, ρ-hydroxymercuribenzoic acid] displayed an IC50 of 24.5 ± 4.1 µM.
